Results as given in patent US12599596B2, “Anti-tumor pharmaceutical composition based on immune checkpoint blockade and use thereof” (Shanghai Hui Tian Jin Ze Biotech Co., Ltd., priority 2023, dated 2026).

Columns and labels:
[1] = system: MC38 colorectal cancer cells; experiment: MC38 subcutaneous tumor model in C57BL/6 mice, Embodiment 2; format: in vivo; conditions: for Tumor volume: CBD 100 mg/kg, PAR 10 mg/kg, vitamin E 50 mg/kg, thymosin 2 mg/kg
Method: • 1. MC38 colorectal cancer cells were inoculated into 6-week-old female C57BL/6 mice (1×10^6 cells/mouse) to establish a subcutaneous tumor model. After the tumor volume reached 50 mm^3, the mice were grouped and administered according to the following pharmaceutical combinations: (1) control group (no administration), (2) anti-PD-1 ([…]/time) group, (3) anti-CTLA4 ([…]/time) group, (4) CBD (100 mg/kg) group, (5) CBD (100 mg/kg)+anti-CTLA4 ([…]/time) group, (6) PAR (10 mg/kg) group, (7) PAR (10 mg/kg)+anti-CTLA4 ([…]) group, (8) CBD (100 mg/kg)+PAR (10 mg/kg) group, (9) vitamin E(a-tocopherol) (50 mg/kg)+thymosin (2 mg/kg) group, (10) CBD (100 mg/kg)+vitamin E(α-tocopherol) (50 mg/kg)+thymosin (2 mg/kg) group, (11) PAR (10 mg/kg)+vitamin E(α-tocopherol) (50 mg/kg)+thymosin (2 mg/kg), (12) PAR (10 mg/kg)+CBD (100 mg/kg)+vitamin E(α-tocopherol) (50 mg/kg)+thymosin (2 mg/kg) group, (13) CBD (100 mg/kg)+vitamin E(α-tocopherol) (50 mg/kg)+thymosin (2 mg/kg)+anti-CTLA4 ([…]/time) group, (14) PAR (10 mg/kg)+vitamin E(α-tocopherol) (50 mg/kg)+thymosin (2 mg/kg)+anti-CTLA4 ([…]) group, and (15) CBD (100 mg/kg)+PAR (10 mg/kg)+vitamin E(α-tocopherol) (50 mg/kg)+thymosin (2 mg/kg)+anti-CTLA4 ([…]/time) group. The tumor weight and volume, and body weight of the mice were monitored once every 2 days. The tumor volume was calculated as follows: tumor volume (mm^3)=0.5×(length)x(width)^2. The mice were sacrificed 14 days after drug administration, and the tumors were dissected.
The dissolving mode of the pharmaceutical composition was as follows: the pharmaceutical composition was dissolved in 10% DMSO+corn oil, the mice were gavaged with the pharmaceutical composition at 100 pl/mouse, and the mice in the control group were injected with the same volume of the solvent. • 2. MC38 colorectal cancer cells were inoculated into 6-week-old female nude mice (1×10^6 cells/mouse) to establish a subcutaneous tumor model. After the tumor volume reached 50 mm^3, the mice were grouped and administered according to the following pharmaceutical combinations: (1) control group, (2) CBD (100 mg/kg)+vitamin E(α-tocopherol) (50 mg/kg)+thymosin (2 mg/kg) group, (3) PAR (10 mg/kg)+vitamin E(α-tocopherol) (50 mg/kg)+thymosin (2 mg/kg) group, and (4) PAR (10 mg/kg)+CBD (100 mg/kg)+vitamin E(α-tocopherol) (50 mg/kg)+thymosin (2 mg/kg) group. The tumor weight and volume, and the body weight of the mice were monitored once every 2 days. The tumor volume was calculated as follows: tumor volume (mm^3)=0.5×(length)x(width)^2. The mice were sacrificed 14 days after drug administration, and the tumors were dissected. (II) Experimental Results 1.

[2] = system: RKO colorectal cancer cells; experiment: EdU proliferation of tumor cells treated with CBD; format: cell-based; conditions: CBD 5, 10, 20 μM, 24 h
Method: (§1) Different types of tumor cells (RKO colorectal cancer cells, H1975 lung cancer cells, and A549 lung cancer cells) in the logarithmic growth phase were respectively inoculated into a 96-well plate at an inoculum density of 5×10^3 per well, and then, the tumor cells were placed into an incubator at 37° C. and 5% CO2 for incubation for 24 h; a CBD mother solution (10 mM) was respectively diluted with culture medium to 5 μM, 10 μM, or 20 μM, and the culture medium in the 96-well plate was aspirated off, 100 μL of culture medium containing different concentrations of CBD was added to each well, a control well (0 μM CBD) was set, and the cells were continuously incubated for 24 h. After the culture was completed, the quantity of proliferating tumor cells was detected with an EdU kit (Beyotime, C0085S). Finally, a high-content imaging analysis system was used for photographing and the data were counted.

A549 lung cancer cells = experiment: EdU proliferation of tumor cells treated with CBD; format: cell-based; conditions: CBD 5, 10, 20 μM, 24 h
Method: as §1

H1975 lung cancer cells = experiment: EdU proliferation of tumor cells treated with CBD; format: cell-based; conditions: CBD 5, 10, 20 μM, 24 h
Method: as §1

## C=C(C)[C@@H]1CCC(C)=C[C@H]1c1c(O)cc(CCCCC)cc1O [CBD, cannabidiol]
[1]; Day 0
  Tumor volume: 0 mm^3
[1]; Day 2
  Tumor volume: 54.99 mm^3
[1]; Day 4
  Tumor volume: 70.96 mm^3
[1]; Day 6
  Tumor volume: 87.63 mm^3
[1]; Day 8
  Tumor volume: 178.79 mm^3
[1]; Day 10
  Tumor volume: 279.84 mm^3
[1]; Day 12
  Tumor volume: 399.70 mm^3
[1]; Day 14
  Tumor volume: 493.09 mm^3
[1]; Day 16
  Tumor volume: 600.09 mm^3
[1]; normal mice, Embodiment 2, comparison between groups
  therapeutic / tumor inhibition effect in words: equivalent therapeutic effects
[2]
  toxicity to tumor cells (proliferation, EdU fluorescence intensity): not significantly toxic
A549 lung cancer cells
  toxicity to tumor cells (proliferation, EdU fluorescence intensity): not significantly toxic
H1975 lung cancer cells
  toxicity to tumor cells (proliferation, EdU fluorescence intensity): not significantly toxic
